Measurements reported in PMC7395068, “The evolution of strategies to minimise the risk of human drug-induced liver injury (DILI) in drug discovery and development” (Archives of Toxicology, 2020).
Read-outs that look alike come from different tables or passages of the source.

Assays:
PHH spheroids = settings: In vitro Assay; ref Vorrink 2018; cited from earlier work
[1] = tested on: isolated mouse liver mitochondria; settings: In vitro Assay; ref Porceddu 2012; cited from earlier work
hLiMTs [2] = assay: Combined HCI (HCS) and cellular ATP 3D assay in hLiMTs; settings: for AC50 / minimal effective concentration: Homo sapiens; for hLiMTs <25x Avg Cmax ATP / hLiMTs <100x Avg Cmaxu ATP: ATP endpoint; for hLiMTs <25x Avg Cmax ATP / hLiMTs <25x Avg Cmax HCS / hLiMTs <25x Avg Cmax All: cut-off <25x Avg Cmax; for hLiMTs <100x Avg Cmaxu ATP / hLiMTs <100x Avg Cmaxu HCS / hLiMTs <100x Avg Cmaxu All: cut-off <100x Avg Cmaxu; for hLiMTs <25x Avg Cmax HCS / hLiMTs <100x Avg Cmaxu HCS: HCS endpoints; for hLiMTs <25x Avg Cmax All: all endpoints (ATP and HCS); for hLiMTs Cmax max All / hLiMTs Cmax min All / hLiMTs <10 uM All / hLiMTs <100x Avg Cmaxu All: all endpoints; for hLiMTs Cmax max All: Cmax max used; for hLiMTs Cmax min All: Cmax min used; for hLiMTs <10 uM All: cut-off <10 uM
[3] = Plasma free fraction (fu) and unbound Cmax (Cmax,u); assay type: in vitro ADME, human; settings: unbound plasma Cmax
Procedure: The prediction of DILI severity was evaluated further using the 3D combined HCI assays using plasma-free fraction. The majority of fu values were obtained from literature, when unavailable in-house prediction was utilised. Unbound plasma Cmax concentrations (Cmax,u) were derived by multiplying total plasma Cmax with the corresponding free fraction (fu) for each compound.

[4] = tested on: HepG2 cells, primary human hepatocytes; settings: In vitro Assay; ref Garside 2014; cited from earlier work
[5] = read-out: Human plasma Cmax; total plasma Cmax.tot, median of 9 literature references; cited from earlier work
human hepatocytes = settings: In vitro Assay; ref Xu 2008; cited from earlier work
[6] = plasma free fraction; cited from earlier work
HepaRG spheroids = assay: Combined HCI (HCS) and cellular ATP 3D assay in HepaRG spheroids; settings: for HepaRG <25x Avg Cmax ATP / HepaRG <100x Avg Cmaxu ATP: ATP endpoint; for HepaRG <25x Avg Cmax ATP / HepaRG <25x Avg Cmax HCS / HepaRG <25x Avg Cmax All: cut-off <25x Avg Cmax; for HepaRG <100x Avg Cmaxu ATP / HepaRG <100x Avg Cmaxu HCS / HepaRG <100x Avg Cmaxu All: cut-off <100x Avg Cmaxu; for HepaRG <25x Avg Cmax HCS / HepaRG <100x Avg Cmaxu HCS: HCS endpoints; for HepaRG <25x Avg Cmax All: all endpoints (ATP and HCS); for HepaRG Cmax max All / HepaRG Cmax min All / HepaRG <10 uM All / HepaRG <100x Avg Cmaxu All: all endpoints; for HepaRG Cmax max All: Cmax max used; for HepaRG Cmax min All: Cmax min used; for HepaRG <10 uM All: cut-off <10 uM; for AC50 / minimal effective concentration: Homo sapiens; for HepaRG <25x Avg Cmax ATP / HepaRG <100x Avg Cmaxu ATP / HepaRG <25x Avg Cmax HCS / HepaRG <100x Avg Cmaxu HCS / HepaRG <25x Avg Cmax All / HepaRG Cmax max All / HepaRG Cmax min All / HepaRG <10 uM All / HepaRG <100x Avg Cmaxu All / AC50 / minimal effective concentration: HepaRG; for DILI prediction HepaRG spheroids (HCS-MEC): Microtissue model structural based (HCI), combined HCS and ATP, MEC < 25 × Cmax.tot cut-off
[7] = tested on: HepG2 C3A spheroid, BSEP, Glu/Gal in HepG2 cells, bioactivation; settings: In vitro Assay; ref Williams 2019; cited from earlier work
[8] = tested on: THLE or HepG2 cells, isolated mitochondria, BSEP; settings: cited from earlier work
HepG2 cells = settings: cited from earlier work
[9] = cited from earlier work
[10] = tested on: primary human hepatocytes, NIH3T3 fibroblasts, BSEP, CYP3A4; settings: cited from earlier work
hLiMTs [11] = settings: cited from earlier work
PHH = settings: cited from earlier work
[12] = cited from earlier work; remark: listed apart in the source
[13] = Modeled in vitro assays (cytotoxicity, mitochondrial dysfunction, BSEP), ref Aleo et al. 2019
[14] = In vitro Assay, ref Schadt 2015
[15] = In vitro Assay, ref Proctor 2017

## CC/C(=C(\c1ccccc1)c1ccc(OCCN(C)C)cc1)c1ccccc1 [tamoxifen]
PHH spheroids
  hLiMTs ATP <20 x Cmax: +VE (IC20 < 20 × Cmax.tot cut-off)
[1]
  in vitro data EC2<=1x Cmax: +VE
  in vitro data EC20<=2uM: +VE
hLiMTs [2]; read-out: ATP endpoint AC50
  AC50: 6.13 µM
hLiMTs [2]; read-out: ATP endpoint MEC
  minimal effective concentration: 3.93 µM
hLiMTs [2]; read-out: HCS endpoint AC50
  AC50: 7.49 µM
hLiMTs [2]; read-out: HCS endpoint MEC
  minimal effective concentration: 1.97 µM
hLiMTs [2]
  hLiMTs <25x Avg Cmax ATP: +ve
  hLiMTs <100x Avg Cmaxu ATP: -ve
  hLiMTs <25x Avg Cmax HCS: +ve
  hLiMTs <100x Avg Cmaxu HCS: -ve
  hLiMTs <25x Avg Cmax All: +ve
  hLiMTs Cmax max All: +ve
  hLiMTs Cmax min All: +ve
  hLiMTs <10 uM All: +ve (<10 uM)
  hLiMTs <100x Avg Cmaxu All: -ve
[3]
  Human plasma Cmax,u: 3 nM
[4]
  Cluster 1-6 +VE Assay: +VE
[5]
  Cmax: 320 nM
Human hepatocytes
  Structural based (HCI): -VE
[6]
  fu: 0.010
HepaRG spheroids
  HepaRG <25x Avg Cmax ATP: -ve
  HepaRG <100x Avg Cmaxu ATP: -ve
  HepaRG <25x Avg Cmax HCS: +ve
  HepaRG <100x Avg Cmaxu HCS: -ve
  HepaRG <25x Avg Cmax All: +ve
  HepaRG Cmax max All: +ve
  HepaRG Cmax min All: +ve
  HepaRG <10 uM All: +ve (<10 uM)
  HepaRG <100x Avg Cmaxu All: -ve
HepaRG spheroids; read-out: ATP endpoint AC50
  AC50: 12.7 µM
HepaRG spheroids; read-out: ATP endpoint MEC
  minimal effective concentration: 10.8 µM
HepaRG spheroids; read-out: HCS endpoint AC50
  AC50: 16.7 µM
HepaRG spheroids; read-out: HCS endpoint MEC
  minimal effective concentration: 3.52 µM

## N[C@@H](Cc1cc(I)c(Oc2ccc(O)c(I)c2)c(I)c1)C(=O)O [liothyronine]
[7]
  Bayesian Machine Learning: -VE
[8]; In vitro Assay, ref Aleo 2019
  Partition Hybrid HRM Score: -VE
  Ro2 Hybrid HRM Score: -VE
[8]; [13]
  Partition Hybrid HRM Score ≥4, Aleo (2019): -VE
  Partition Hybrid HRM Score ≥8, Aleo (2019): -VE
  Rule of Two hybrid HRM Score ≥3, Aleo (2019): -VE
  Rule of Two hybrid HRM Score ≥8, Aleo (2019): -VE
hLiMTs [2]; Microtissue model structural based (HCI), combined HCS and ATP, MEC < 25 × Cmax.tot cut-off
  DILI prediction hLiMTs (HCS-MEC): -VE
hLiMTs [2]
  hLiMTs <25x Avg Cmax ATP: -ve
  hLiMTs <100x Avg Cmaxu ATP: -ve
  hLiMTs <25x Avg Cmax HCS: -ve
  hLiMTs <100x Avg Cmaxu HCS: -ve
  hLiMTs <25x Avg Cmax All: -ve
  hLiMTs Cmax max All: -ve
  hLiMTs Cmax min All: -ve
  hLiMTs <10 uM All: -ve
  hLiMTs <100x Avg Cmaxu All: -ve
[3]
  Human plasma Cmax,u: 0.05 nM
[5]
  Cmax: 2 nM
[6]
  fu: 0.020
HepaRG spheroids
  HepaRG <25x Avg Cmax ATP: -ve
  HepaRG <100x Avg Cmaxu ATP: -ve
  HepaRG <25x Avg Cmax HCS: -ve
  HepaRG <100x Avg Cmaxu HCS: -ve
  HepaRG <25x Avg Cmax All: -ve
  HepaRG Cmax max All: -ve
  HepaRG Cmax min All: -ve
  HepaRG <10 uM All: +ve (<10 uM)
  HepaRG <100x Avg Cmaxu All: -ve
  DILI prediction HepaRG spheroids (HCS-MEC): -VE
HepaRG spheroids; read-out: ATP endpoint AC50
  AC50: 30.5 µM
HepaRG spheroids; read-out: ATP endpoint MEC
  minimal effective concentration: 11.5 µM
HepaRG spheroids; read-out: HCS endpoint AC50
  AC50: 82.8 µM
HepaRG spheroids; read-out: HCS endpoint MEC
  minimal effective concentration: 4.14 µM

## CN(C)C(=N)N=C(N)N [metformin]
[1]
  in vitro data EC2<=1x Cmax: +VE
  in vitro data EC20<=2uM: -VE
HepG2 cells; In vitro Assay, ref O'Brien 2006
  Structural based (HCI): +VE
HepG2 cells; Structural based (HCI), HepG2, ref O'Brien et al. 2006
  DILI in vitro assay prediction, O'Brien (2006): +VE (lowest HCI endpoint IC50 (or in the absence of dose–response < 100 µM) < 30 × total human plasma exposure levels (Cmax.tot))
[9]; Chen et al. 2016 or literature alignment, ref Chen et al. 2016
  Assigned DILI category: 2
[9]; ref Garside 2014
  In vivo DILI: +VE
[9]; ref O'Brien 2006
  In vivo DILI: -VE
[9]; ref Porceddu 2012
  In vivo DILI: +VE
[9]; ref Proctor 2017
  In vivo DILI: +VE
[9]; ref Schadt 2015
  In vivo DILI: -VE
hLiMTs [2]; HCS endpoints only, 25 × Cmax.tot cut-off
  DILI prediction hLiMTs, HCI alone: detection
hLiMTs [2]; read-out: ATP endpoint AC50
  AC50: 768 µM
hLiMTs [2]; read-out: ATP endpoint MEC
  minimal effective concentration: 503 µM
hLiMTs [2]; read-out: HCS endpoint MEC
  minimal effective concentration: 28.1 µM
hLiMTs [2]; cellular ATP only, 25 × Cmax.tot cut-off
  DILI prediction hLiMTs, ATP alone: unpredicted
hLiMTs [2]
  hLiMTs <25x Avg Cmax ATP: -ve
  hLiMTs <100x Avg Cmaxu ATP: +ve (<100x Avg Cmaxu)
  hLiMTs <25x Avg Cmax HCS: +ve
  hLiMTs <100x Avg Cmaxu HCS: +ve (<100x Avg Cmaxu)
  hLiMTs <25x Avg Cmax All: +ve
  hLiMTs Cmax max All: +ve
  hLiMTs Cmax min All: +ve
  hLiMTs <10 uM All: -ve
  hLiMTs <100x Avg Cmaxu All: +ve (<100x Avg Cmaxu)
[3]
  Human plasma Cmax,u: 7743 nM
[10]; BSEP & Metabolism based, ref Schadt et al. 2015
  DILI in vitro assay prediction, Schadt (2015): -VE
[10]; [14]
  Cellular toxicity (3T3 cells): -VE
  Combined Assay: -VE
  GSH adduct HML: -VE
  Hepatocyte cellular toxicity: -VE
  MitoTox 3T3: -VE
  TDI CYP3A4: -VE
  hBSEP inhibition: -VE
hLiMTs [11]; [15]
  hLiMTs ATP <100uM: -VE
hLiMTs [11]; hLiMTs, ATP, IC50 < 100 × Cmax.tot, ref Proctor et al. 2017
  hLiMTs/100xCmax, Proctor (2017): -VE
hLiMTs [11]; hLiMTs, ATP, IC50 threshold 100 µM, ref Proctor et al. 2017
  hLiMTs/100uM, Proctor (2017): -VE
[4]
  Cluster 1-6 +VE Assay: +VE
[5]
  Cmax: 7820 nM
PHH; 2D PHH, ATP, IC50 < 100 × Cmax.tot, ref Proctor et al. 2017
  PHH/100xCmax, Proctor (2017): -VE
PHH; 2D PHH, ATP, IC50 threshold 100 µM, ref Proctor et al. 2017
  PHH/100uM, Proctor (2017): -VE
PHH; [15]
  PHH ATP <100uM: -VE
[6]
  fu: 0.990
HepaRG spheroids
  HepaRG <25x Avg Cmax ATP: -ve
  HepaRG <100x Avg Cmaxu ATP: -ve
  HepaRG <25x Avg Cmax HCS: -ve
  HepaRG <100x Avg Cmaxu HCS: -ve
  HepaRG <25x Avg Cmax All: -ve
  HepaRG Cmax max All: -ve
  HepaRG Cmax min All: -ve
  HepaRG <10 uM All: -ve
  HepaRG <100x Avg Cmaxu All: -ve
  DILI prediction HepaRG spheroids (HCS-MEC): -VE
[12]; LTKB DILIrank category, ref Chen et al. 2016
  DILI severity category (Chen et al. [2016]): Less
[12]; human DILI classification, LTKB DILIrank, ref Chen et al. 2016
  DILI severity category (Chen 2016): Less
[12]; human DILI severity, ref Chen et al.
  DILI severity category: Less
[12]; ref Chen 2016
  DILI +VE (5-8), DILI -VE (-4): +VE
  DILI severity category: vLess-DILI-Concern
